The target in the experiment is SARS-CoV-2 Mac1 (Severe acute respiratory syndrome coronavirus 2, UniProt P0DTD1). The experiment is described as follows: biochemical. Particulars: for inhibition at 100 µM: read-out: %inhibition; for %inhibition: 100 µM, inhibitor.

SMILES strings stand for the structures. Counter-ions that a name gives are not always drawn.

`Cc1c(C(=O)Nc2ccc(N3C[C@@H](C)O[C@@H](C)C3)nc2)cccc1-c1ccc(OC(F)(F)F)cc1` [Sonidegib (Erismodegib, NVP-LDE225)]: the inhibition (commonly the relative decrease from the control value, in per cent) at 100 µM was determined as 0%.

`CNC(=O)c1cc(Oc2ccc(NC(=O)Nc3ccc(Cl)c(C(F)(F)F)c3)cc2)ccn1` [Sorafenib Tosylate]: the %inhibition – broadly, the percentage by which the read-out fell short of the control – was 10.76%.

`CNC(=O)c1cc(Oc2ccc(NC(=O)Nc3ccc(Cl)c(C(F)(F)F)c3)cc2)ccn1` [Sorafenib]: the inhibition at 100 µM is 15.7%.

On to `OC[C@@H](O)[C@@H](O)[C@H](O)[C@@H](O)CO` [Sorbitol], for which the inhibition at 100 µM was 0%.

For `CCOc1ccc(Cc2cc([C@@H]3O[C@H](SC)[C@@H](O)[C@H](O)[C@H]3O)ccc2Cl)cc1` [Sotagliflozin (LX4211)], the inhibition at 100 µM was 0%.

As for `CC(C)NCC(O)c1ccc(NS(C)(=O)=O)cc1` (centres unmarked) [Sotalol HCl], the inhibition at 100 µM came to 0%.

For the molecule `CN1CCN(c2nc(C3=C(c4c[nH]c5ccccc45)C(=O)NC3=O)c3ccccc3n2)CC1` [Sotrastaurin], the inhibition at 100 µM was 34.7%.

With `C[C@@H]1CN(c2c(F)c(N)c3c(=O)c(C(=O)O)cn(C4CC4)c3c2F)C[C@H](C)N1` [Sparfloxacin], the inhibition at 100 µM is 25.5%.

As to `CN[C@@H]1[C@H](O)[C@H](NC)[C@H]2O[C@@]3(O)C(=O)C[C@@H](C)O[C@H]3O[C@@H]2[C@H]1O` [Spectinomycin 2HCl], the inhibition at 100 µM turned out to be 11.7%.

On to `CC(=O)S[C@@H]1CC2=CC(=O)CC[C@]2(C)[C@H]2CC[C@@]3(C)[C@@H](CC[C@@]34CCC(=O)O4)[C@H]12` [Spironolactone], for which the inhibition at 100 µM was 6.62%.

With `Cc1cn([C@H]2C=C[C@@H](CO)O2)c(=O)[nH]c1=O` [Stavudine (d4T)], the inhibition at 100 µM stood at 0%.

Consider `CCCCCCCCCCCCCCCCCC(=O)O` [Stearic acid], for which the inhibition at 100 µM is 6.72%.

For the molecule `CC(C)(C)C(O)/C=C/c1ccc2c(c1)OCO2` (centres unmarked) [Stiripentol], the inhibition at 100 µM stood at 12.5%.

On to `CN[C@@H]1[C@H](O[C@H]2[C@H](O[C@H]3[C@H](O)[C@@H](O)[C@H](N=C(N)N)[C@@H](O)[C@@H]3N=C(N)N)O[C@@H](C)[C@]2(O)C=O)O[C@@H](CO)[C@H](O)[C@H]1O` [Streptomycin sulfate], for which the inhibition at 100 µM amounted to 0%.

Turning to `C[N+](C)(C)CCOC(=O)CCC(=O)OCC[N+](C)(C)C` [Succinylcholine Chloride Dihydrate], the inhibition at 100 µM came to 0%.

Consider `O=C(O)CCC(=O)Nc1ccc(S(=O)(=O)Nc2nccs2)cc1` [Succinylsulfathiazole], for which the inhibition at 100 µM was 0%.

Regarding `CC1(C)[C@H](C(=O)O)N2C(=O)C[C@H]2S1(=O)=O` [Sulbactam sodium], the inhibition at 100 µM turned out to be 16.4%.

Regarding `CC1(C)[C@H](C(=O)O)N2C(=O)C[C@H]2S1(=O)=O` [Sulbactam], the “%inhibition” value is listed as 20.75%.

As to `Nc1ccc(S(=O)(=O)NC(=O)c2ccccc2)cc1` [Sulfabenzamide], the inhibition at 100 µM stood at 0%.

`CC(=O)NS(=O)(=O)c1ccc(N)cc1` [Sulfacetamide Sodium]: the “%inhibition” value is recorded as 3.132%.

As for `CC(=O)NS(=O)(=O)c1ccc(N)cc1` [Sulfacetamide sodium salt hydrate], the “%inhibition” value is 8.356%.

As for `CC(=O)NS(=O)(=O)c1ccc(N)cc1` [Sulfacetamide], the “%inhibition” value was 27.01%.

With `Nc1ccc(S(=O)(=O)Nc2ncccn2)cc1` [Sulfadiazine], the “%inhibition” value was found to be 29.9%.

In the case of `COc1ncnc(NS(=O)(=O)c2ccc(N)cc2)c1OC` [Sulfadoxine], the inhibition at 100 µM stood at 0%.

For the molecule `N=C(N)NS(=O)(=O)c1ccc(N)cc1` [Sulfaguanidine], the inhibition at 100 µM was determined as 8.72%.

Consider `COc1nccnc1NS(=O)(=O)c1ccc(N)cc1` [Sulfalene(SMPZ)], for which the inhibition at 100 µM was determined as 5.42%.

In the case of `Nc1ccc(S(=O)(=O)Nc2cncc(Cl)n2)cc1` [Sulfalozine sodium], the inhibition at 100 µM is 0%.

As to `Cc1ccnc(NS(=O)(=O)c2ccc(N)cc2)n1` [Sulfamerazine], the inhibition at 100 µM turned out to be 0%.

Turning to `COc1cnc(NS(=O)(=O)c2ccc(N)cc2)nc1` [Sulfameter], the inhibition at 100 µM was 0%.

On to `Cc1cc(C)nc(NS(=O)(=O)c2ccc(N)cc2)n1` [Sulfamethazine Sodium Salt], for which the “%inhibition” value is reported as 12.6%.

Consider `Cc1cc(C)nc(NS(=O)(=O)c2ccc(N)cc2)n1` [Sulfamethazine], for which the “%inhibition” value was 0%.

Regarding `Cc1nnc(NS(=O)(=O)c2ccc(N)cc2)s1` [Sulfamethizole], the inhibition at 100 µM came to 15.9%.

For the molecule `Cc1cc(NS(=O)(=O)c2ccc(N)cc2)no1` [Sulfamethoxazole sodium], the “%inhibition” value is recorded as 0%.

Regarding `Cc1cc(NS(=O)(=O)c2ccc(N)cc2)no1` [Sulfamethoxazole], the “%inhibition” value was 24.84%.

In the case of `COc1ccc(NS(=O)(=O)c2ccc(N)cc2)nn1` [Sulfamethoxypyridazine], the inhibition at 100 µM was 4.31%.

Consider `Nc1ccc(S(N)(=O)=O)cc1` [Sulfanilamide], for which the inhibition at 100 µM is 19.9%.

With `Nc1ccc(S(=O)(=O)Nc2ccnn2-c2ccccc2)cc1` [Sulfaphenazole], the inhibition at 100 µM stood at 0%.

As to `Nc1ccc(S(=O)(=O)Nc2ccccn2)cc1` [Sulfapyridine], the inhibition at 100 µM was found to be 10.7%.

As to `O=C(O)c1cc(/N=N/c2ccc(S(=O)(=O)Nc3ccccn3)cc2)ccc1O` [Sulfasalazine], the inhibition at 100 µM is 0%.

With `Nc1ccc(S(=O)(=O)Nc2nccs2)cc1` [Sulfathiazole], the inhibition at 100 µM is 5.37%.

For the molecule `Cc1noc(NS(=O)(=O)c2ccc(N)cc2)c1C` [Sulfisoxazole], the inhibition at 100 µM is 20.4%.

Consider `COc1cc(S(=O)(=O)O)ccc1O` [Sulfogaiacol], for which the inhibition at 100 µM is 0%.

For the molecule `CC1=C(CC(=O)O)c2cc(F)ccc2/C1=C\c1ccc([S+](C)[O-])cc1` (centres unmarked) [Sulindac], the inhibition at 100 µM stood at 4.16%.

Take `COc1cc(O)c(C(=O)c2ccccc2)cc1S(=O)(=O)O` [Sulisobenzone]: the inhibition at 100 µM was 4.13%.

Consider `COc1cc(NS(=O)(=O)c2ccc(N)cc2)nc(OC)n1` [Sulphadimethoxine], for which the inhibition at 100 µM was found to be 0%.

`CCN1CCCC1CNC(=O)c1cc(S(N)(=O)=O)ccc1OC` (centres unmarked) [Sulpiride]: the inhibition at 100 µM amounted to 0%.

`CC1(C)S[C@@H]2[C@H](NC(=O)[C@H](N)c3ccccc3)C(=O)N2[C@H]1C(=O)OCOC(=O)[C@@H]1N2C(=O)C[C@H]2S(=O)(=O)C1(C)C` [Sultamicillin]: the inhibition at 100 µM was determined as 8.63%.

On to `CCN(CC)CCNC(=O)c1c(C)[nH]c(/C=C2\C(=O)Nc3ccc(F)cc32)c1C` [Sunitinib Malate], for which the inhibition at 100 µM was 16.2%.

Take `CCN(CC)CCNC(=O)c1c(C)[nH]c(/C=C2\C(=O)Nc3ccc(F)cc32)c1C` [Sunitinib]: the “%inhibition” value is 31.86%.

In the case of `CC(C(=O)O)c1ccc(C(=O)c2cccs2)cc1` (centres unmarked) [Suprofen], the inhibition at 100 µM is 18%.

For the molecule `CNC(=O)c1ccc2cc([C@@]3(O)CCn4cncc43)ccc2c1` [TAK-700 (Orteronel)], the inhibition at 100 µM amounted to 0%.

In the case of `Nc1c2c(nc3ccccc13)CCCC2` [Tacrine HCl], the “%inhibition” value is listed as 0.07061%.

Consider `Nc1c2c(nc3ccccc13)CCCC2` [Tacrine hydrochloride hydrate], for which the “%inhibition” value is 12.09%.

(Values after article doi:10.1101/2021.10.07.463234v2 (biorxiv, 2021).)
